pEC50: −log10 of the molar value. “And” between values parts separate entries of the source, which are not always exact repeats. Equal entries are not always repeated. “Also recorded” adds a separate entry of the source. Where two headings read alike, the source gives them in different places.
Key:
[1] = molecular target: T1, xanthine oxidase (XO) (Homo sapiens, UniProt P47989); assay: Semi-mechanistic exposure-response uric acid model: XOI inhibition of uric acid production rate (clinical sUA/uUA data); format: in vivo
T1 construct: from tissue
T1 sequence (P47989 whole entry): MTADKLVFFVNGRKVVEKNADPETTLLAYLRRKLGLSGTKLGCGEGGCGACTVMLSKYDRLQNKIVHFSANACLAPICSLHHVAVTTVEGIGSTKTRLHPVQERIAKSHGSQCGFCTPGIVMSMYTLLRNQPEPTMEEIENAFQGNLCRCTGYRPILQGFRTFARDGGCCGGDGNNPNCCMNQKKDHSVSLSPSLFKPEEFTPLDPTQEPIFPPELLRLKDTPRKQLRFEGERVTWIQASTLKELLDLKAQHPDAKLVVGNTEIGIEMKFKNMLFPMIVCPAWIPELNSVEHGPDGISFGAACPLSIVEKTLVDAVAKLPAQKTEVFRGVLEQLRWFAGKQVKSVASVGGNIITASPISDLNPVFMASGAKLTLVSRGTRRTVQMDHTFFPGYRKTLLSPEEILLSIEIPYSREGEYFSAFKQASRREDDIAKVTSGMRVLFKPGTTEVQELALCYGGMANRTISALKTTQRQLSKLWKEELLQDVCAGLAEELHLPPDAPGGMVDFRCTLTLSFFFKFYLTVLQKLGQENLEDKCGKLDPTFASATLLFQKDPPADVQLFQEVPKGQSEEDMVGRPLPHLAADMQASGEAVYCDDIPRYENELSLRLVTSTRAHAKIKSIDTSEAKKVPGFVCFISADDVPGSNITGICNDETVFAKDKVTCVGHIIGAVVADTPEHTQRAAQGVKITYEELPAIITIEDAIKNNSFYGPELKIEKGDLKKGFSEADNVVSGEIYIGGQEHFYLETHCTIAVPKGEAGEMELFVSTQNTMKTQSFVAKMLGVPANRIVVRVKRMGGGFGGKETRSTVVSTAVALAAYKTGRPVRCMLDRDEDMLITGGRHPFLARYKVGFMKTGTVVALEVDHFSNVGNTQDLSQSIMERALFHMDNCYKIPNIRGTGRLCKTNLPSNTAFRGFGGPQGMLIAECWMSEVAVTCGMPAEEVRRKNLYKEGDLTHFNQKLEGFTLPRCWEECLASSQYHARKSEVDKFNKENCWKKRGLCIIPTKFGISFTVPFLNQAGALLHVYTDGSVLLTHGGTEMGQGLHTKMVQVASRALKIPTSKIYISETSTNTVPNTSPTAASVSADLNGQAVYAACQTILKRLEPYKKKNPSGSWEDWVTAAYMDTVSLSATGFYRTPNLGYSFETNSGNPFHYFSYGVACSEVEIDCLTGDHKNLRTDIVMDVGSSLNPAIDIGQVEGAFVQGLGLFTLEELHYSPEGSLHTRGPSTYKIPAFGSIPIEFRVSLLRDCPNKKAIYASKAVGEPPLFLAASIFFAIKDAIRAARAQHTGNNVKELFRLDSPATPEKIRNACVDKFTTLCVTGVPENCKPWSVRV

[2] = molecular target: T1, xanthine oxidase (XO); parameters: method as in Aksenov et al. 2018 [23]; details: fixed, not estimated; ref Aksenov et al. 2018 [23]; cited from earlier work
[3] = Population pharmacokinetic model, oxypurinol; format: in vivo, human
Description: CL = CLTYP * (1 + log(1+k*DOSE_[…]))
Where CLTYP is typical value of clearance and k is a coefficient for verinurad dose (1/mg).

[4] = molecular target: T2, URAT1 (Homo sapiens, UniProt Q96S37); parameters: method as in PMID 21148271, PMID 18492088; details: fixed, not estimated; consistent with FEUA in URAT1 loss of function mutations; cited from earlier work
T2 construct: from tissue; host or cells: kidney (proximal tubule) of human study subjects, in vivo
T2 sequence (Q96S37 1-553): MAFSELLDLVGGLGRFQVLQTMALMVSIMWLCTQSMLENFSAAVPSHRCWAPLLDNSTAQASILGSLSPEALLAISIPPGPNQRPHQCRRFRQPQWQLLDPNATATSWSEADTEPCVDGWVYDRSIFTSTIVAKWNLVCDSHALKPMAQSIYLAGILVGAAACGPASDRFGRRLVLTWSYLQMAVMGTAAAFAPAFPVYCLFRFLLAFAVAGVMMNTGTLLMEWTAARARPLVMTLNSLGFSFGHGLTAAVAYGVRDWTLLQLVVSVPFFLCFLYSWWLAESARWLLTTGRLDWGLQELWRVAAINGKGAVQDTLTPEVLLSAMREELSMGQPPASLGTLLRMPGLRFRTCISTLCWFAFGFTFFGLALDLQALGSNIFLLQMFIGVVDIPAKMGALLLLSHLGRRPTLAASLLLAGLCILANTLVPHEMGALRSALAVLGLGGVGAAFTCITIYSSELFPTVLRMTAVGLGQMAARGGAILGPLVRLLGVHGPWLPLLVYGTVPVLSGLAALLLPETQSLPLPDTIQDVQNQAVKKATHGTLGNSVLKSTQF

[5] = molecular target: T2, URAT1; assay: Semi-mechanistic exposure-response uric acid model: verinurad inhibition of uric acid reabsorption (clinical sUA/uUA data); format: in vivo

pEC50 [1]	EC50 ([1]; plasma concentration giving half-maximal inhibition of production rate, typical value, read-out: EC50 (reducing uric acid production) (converted))	Decrease of oxypurinol exposure when administered together with verinurad ([3]; 12 mg verinurad, according to the model)	Vd ([3]; human, in vivo, oral, read-out: Central volume of distribution)	Absorption rate constant ([3]; oxypurinol after allopurinol dosing, popPK estimate)	EC50 ([5]; plasma concentration giving half-maximal inhibition of reabsorption, typical value, healthy volunteers, read-out: Verinurad EC50 (reducing uric acid reuptake) (converted))	EC50 ([5]; plasma concentration, symptomatic hyperuricemic (gout) patients, read-out: Verinurad EC50, symptomatic hyperuricemic (gout) subjects (converted))	Verinurad EC50 difference, asymptomatic hyperuricemic patients versus healthy volunteers ([5]; studies D5495C00001 and D5495C00007)	SMILES	Febuxostat EC50 difference, healthy volunteers versus hyperuricemic patients ([1]; human, in vivo)	Emax (maximum inhibition of uric acid production) [2]	Emax (maximum increase in fractional excretion of uric acid) [4]
6.39								Cc1nc(-c2ccc(OCC(C)C)c(C#N)c2)sc1C(=O)O [febuxostat]	no differences; also recorded: not found to be significantly different	1	
	85700 nM	approximately 30%	45.7 L	0.3343 h⁻¹				O=c1[nH]c(=O)c2c[nH]nc2[nH]1 [oxypurinol]		0.84	
					83.2 nM and 84.4 nM	106 nM and 107 nM	no significant difference	CC(C)(Sc1ccncc1-c1ccc(C#N)c2ccccc12)C(=O)O [verinurad]			0.7

From PMC8225519, “A semi-mechanistic exposure–response model to assess the effects of verinurad, a potent URAT1 inhibitor, on serum and urine uric acid in patients with hyperuricemia-associated diseases” (Journal of Pharmacokinetics and Pharmacodynamics, 2021)
